The text below walks through data of patent publication US12552767B2, “3-heteroaryl pyrrolidine and piperidine orexin receptor agonists” (Merck Sharp & Dohme LLC, priority 2020, dated 2026).

The target of the assay is T1, human OX2R (Homo sapiens, UniProt O43614).
T1 construct: expressed in transfected cells; host or cells: CHO (Chinese hamster ovary) cells, grown under G418 selection
T1 sequence (O43614 1-444): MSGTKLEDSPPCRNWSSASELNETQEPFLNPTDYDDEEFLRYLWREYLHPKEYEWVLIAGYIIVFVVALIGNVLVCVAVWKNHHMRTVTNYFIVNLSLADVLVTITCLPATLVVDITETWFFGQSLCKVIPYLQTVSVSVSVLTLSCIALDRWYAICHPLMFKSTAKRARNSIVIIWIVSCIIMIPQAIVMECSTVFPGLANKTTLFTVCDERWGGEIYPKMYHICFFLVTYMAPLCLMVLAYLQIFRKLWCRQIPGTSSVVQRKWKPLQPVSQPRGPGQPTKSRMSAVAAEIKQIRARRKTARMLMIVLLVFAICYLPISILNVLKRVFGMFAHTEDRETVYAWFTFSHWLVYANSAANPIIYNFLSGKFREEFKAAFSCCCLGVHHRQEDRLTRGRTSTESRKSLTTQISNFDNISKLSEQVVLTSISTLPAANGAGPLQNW
The assay is described as follows: IP-One (IPOne) orexin receptor agonist assay in CHO cells expressing human OX2R. The format is cell-based. As to conditions: for EC50: CHO cells expressing human OX2R, IP-One IP-1 detection, 2 hours incubation, four parameter logistic fit, read-out: OX2R Potency, EC50; for % of reference agonist maximal effect: human OX2R, percentage of sample raw value/mean max effect (reference compound at 1 uM with 100% activity). The source says:
The utility of the compounds in accordance with the present invention as orexin receptor OX1R and/or OX2R agonists may be readily determined without undue experimentation by methodology well known in the art. Both the OX1R and/or OX2R G-coupled protein receptors (GPCRs) couple through the Gαq signaling pathway, which ultimately promotes calcium mobilization via inositol triphosphate (IP3) production. The half-life of IP-3 is relatively short, being rapidly metabolized to inositol monophosphate (IP-1), which can be readily detected using a commercially available assay kit (IP-One; Cisbio; cat #621PAPEC) coupled with a cell line expressing the target receptor(s) of interest. The utility of the compounds in accordance with the present invention as orexin receptor OX1R and/or OX2R agonists may be determined utilizing this assay.
In a typical experiment, the OX1 and OX2 receptor agonist activity is determined in accordance with the following general experimental method. Chinese hamster ovary (CHO) cells expressing human OX1R and/or the human OX2R were grown in Iscove's modified DMEM containing glutaMAX™, 1% G418, 100 U/mL penicillin, 100 μg/mL streptomycin and 10% heat-inactivated qualified fetal bovine serum (FBS). The OX2R cells were seeded at 10,000 cells/well/50 μL and the OX1R cells were seeded at 20,000 cells/well/50 μL into 384-well white tissue culture plates (Greiner; cat #781080). All cell/media reagents were from GIBCO-Invitrogen Corp. The seeded cell plate(s) were incubated at 37° C. with 5% CO2 and 85% humidity for 20-24 hours. On the day of the assay, assay-ready compound plates were prepared using an acoustic liquid handler (ECHO; Labcyte), which dispensed sufficient volume of test compound stock (10 mM in DMSO) or 100% DMSO to prepare 10 point, ½-log dilutions in a final volume of 202.5 nL/well in all test wells of a 384-well diamond plate (Labcyte). Following completion of assay-ready plates, importantly, the next three steps were performed with minimal delay: 1) 20 μl of 1× stimulation buffer was added to the compound plate using a Multidrop Combi (small cassette, Thermo Fisher Scientific cat #24073290); 2) culture medium was removed from the cell plate using the Bluewasher plate washer (gentle spin; BlueCatBio); 3) 14 μl of compound/stimulation buffer mixture was added to the cell plate using a Bravo liquid handler (Agilent) prior to incubating cell plates at 37° C. with 5% CO2 and 85% humidity for 1 or 2 hours (OX1R and OX2R, respectively). During this incubation, IP-one detection reagents were prepared (38:1:1 lysis buffer:D2:AB-cryptate reagents). Six μL of mixed detection reagents were added to the cell plate using a Multidrop Combi (small cassette, Thermo Fisher Scientific cat #24073290) and incubated 60 minutes at room temperature in the dark. Fluorescence signal was detected using an Envision plate reader (Perkin Elmer) [LANCE/DELFIA Dual Enh (Em: APC 665; Ex: Cy5 620)].
For each compound, data were fit to a four parameter logistic fit (ActivityBase software) and the EC50 was reported as the inflection point of the resulting curve. Percent effect for each test compound was determined as the percentage of sample raw value/mean max effect, where the mean max effect was derived from the mean raw value of 32 control wells per assay plate (using Orexin A (cat #003-30) at 1 μM for human OX1R and a reference compound at 1 uM with 100% activity previously established by comparison to Orexin A for human OX2R). The intrinsic orexin receptor agonist activity of a compound which may be used in the present invention may be determined by these assays.

On to `CCNC(=O)N1CCC[C@H](c2n[nH]cc2C)[C@@H]1CO[C@H]1CC[C@@H](c2cccc(F)c2)CC1` (racemic) [Example 10, (CIS)-N-ethyl-2-((((CIS)-4-(3-fluorophenyl)cyclohexyl)oxy)methyl)-3-(4-methyl-1H-pyrazol-3-yl)piperidine-1-carboxamide], for which the EC50 (commonly the concentration needed to bring the measured effect to its halfway point) is 4.8 nM and the “% of reference agonist maximal effect” value is 100.8%.

For `COC(=O)N1C[C@@H](C)C[C@H](c2ccn[nH]2)[C@@H]1CO[C@H]1CC[C@@H](c2ccccc2)CC1` (racemic) [Example 39, (+/−) methyl (2R,3S,5S)-5-methyl-2-((((CIS)-4-phenylcyclohexyl)oxy)methyl)-3-(1H-pyrazol-5-yl)piperidine-1-carboxylate], the EC50 amounted to 1980 nM and the “% of reference agonist maximal effect” value was 94.8%.

In the case of `COC(=O)N1C[C@@H](C)C[C@@H](c2ccn[nH]2)[C@@H]1CO[C@H]1CC[C@@H](c2ccccc2)CC1` (racemic) [Example 40, (+/−) methyl (2R,3R,5S)-5-methyl-2-((((CIS)-4-phenylcyclohexyl)oxy)methyl)-3-(1H-pyrazol-5-yl)piperidine-1-carboxylate], the EC50 is 1630 nM and the “% of reference agonist maximal effect” value was determined as 95.8%.

As to `COC(=O)N1C[C@H](C)C[C@H](c2ccn[nH]2)[C@@H]1CO[C@H]1CC[C@@H](c2ccccc2)CC1` (racemic) [Example 41, (+/−) methyl (2R,3S,5R)-5-methyl-2-((((CIS)-4-phenylcyclohexyl)oxy)methyl)-3-(1H-pyrazol-5-yl)piperidine-1-carboxylate], the EC50 is 2360 nM and the “% of reference agonist maximal effect” value was 95.4%.

`COC(=O)N1CCC[C@H](c2n[nH]cc2Cl)[C@@H]1CO[C@H]1CC[C@@H](c2ccccc2Cl)CC1` (racemic) [Example 47, Methyl cis-3-(4-chloro-1H-pyrazol-3-yl)-2-((((CIS)-4-(2-chlorophenyl)cyclohexyl)oxy)methyl)piperidine-1-carboxylate]: the half-maximal effective concentration (EC50) came to 357 nM and the “% of reference agonist maximal effect” value was 99.2%.

As to `COC(=O)N1CCC[C@H](c2n[nH]cc2Cl)[C@@H]1CO[C@H]1CC[C@@H](c2ccc(Cl)cc2)CC1` (racemic) [Example 48, Methyl cis-3-(4-chloro-1H-pyrazol-3-yl)-2-((((CIS)-4-(4-chlorophenyl)cyclohexyl)-oxy)methyl)piperidine-1-carboxylate], the EC50 was found to be 922 nM and the “% of reference agonist maximal effect” value is listed as 97.6%.

In the case of `COC(=O)N1CCC[C@H](c2nc(O)sc2C)[C@@H]1CO[C@H]1CC[C@@H](c2ccccc2)CC1` (relative stereo) [Example 2, Methyl (CIS)-3-(2-hydroxy-5-methylthiazol-4-yl)-2-((((CIS)-4-phenylcyclohexyl)oxy)-methyl)piperidine-1-carboxylate], the EC50 came out at 15.1 nM and the “% of reference agonist maximal effect” value amounted to 101.9%.

As to `CCNC(=O)N1CCC[C@H](c2ccn[nH]2)[C@@H]1COC1CCC(C(C)C)CC1` (relative stereo) [Example 3, (CIS)-N-ethyl-2-(((4-isopropylcyclohexyl)oxy)methyl)-3-(1H-pyrazol-5-yl)piperidine-1-carboxamide], the EC50 is 676 nM and the “% of reference agonist maximal effect” value worked out at 99.9%.

Consider `COC(=O)N1CCC[C@H](c2n[nH]cc2C)[C@@H]1COC1CCN(c2ncccn2)CC1` (relative stereo) [Example 6, Methyl (CIS)-3-(4-methyl-1H-pyrazol-3-yl)-2-(((1-(pyrimidin-2-yl)piperidin-4-yl)oxy)methyl)piperidine-1-carboxylate], for which the EC50 was determined as 1270 nM and the “% of reference agonist maximal effect” value turned out to be 96.6%.

`COC(=O)N1CCC[C@H](c2n[nH]cc2C)[C@@H]1COC1CCN(c2ncc(F)cn2)CC1` (relative stereo) [Example 7, methyl (CIS)-2-(((1-(5-fluoropyrimidin-2-yl)piperidin-4-yl)oxy)methyl)-3-(4-methyl-1H-pyrazol-3-yl)piperidine-1-carboxylate]: the concentration for a half-maximal effect (EC50) turned out to be 1500 nM and the “% of reference agonist maximal effect” value came out at 95.7%.

With `COC(=O)N1CCC[C@H](c2n[nH]cc2C)[C@@H]1COC1CCN(c2ccccc2)CC1` (relative stereo) [Example 8, Methyl (CIS)-3-(4-methyl-1H-pyrazol-3-yl)-2-(((1-phenylpiperidin-4-yl)oxy)methyl)piperidine-1-carboxylate], the EC50 stood at 5840 nM and the “% of reference agonist maximal effect” value is reported as 80.9%.

Regarding `Cc1c[nH]nc1[C@H]1CCCN(C(=O)OC(C)C)[C@H]1COC1CCN(c2ncccn2)CC1` (relative stereo) [Example 9, Isopropyl (CIS)-3-(4-methyl-1H-pyrazol-3-yl)-2-(((1-(pyrimidin-2-yl)piperidin-4-yl)oxy)methyl)piperidine-1-carboxylate], the EC50 was 250 nM and the “% of reference agonist maximal effect” value was 100.7%.

In the case of `Cc1c[nH]nc1[C@@H]1CCCN(C(=O)C2CC2)[C@@H]1CO[C@H]1CC[C@@H](c2cccc(F)c2)CC1` (relative stereo) [Example 14], the EC50 came to 65.5 nM and the “% of reference agonist maximal effect” value is 99.9%.

`COC(=O)N1CCC[C@H](c2n[nH]cc2C)[C@@H]1CO[C@H]1CC[C@@H](c2cccc(F)c2)CC1` (relative stereo) [Example 15, methyl (CIS)-2-((((CIS)-4-(3-fluorophenyl)cyclohexyl)oxy)methyl)-3-(4-methyl-1H-pyrazol-3-yl)piperidine-1-carboxylate]: the EC50 was found to be 117 nM and the “% of reference agonist maximal effect” value is 99.3%.

As to `Cc1c[nH]nc1[C@H]1CCCN(C(=O)OCC(F)F)[C@H]1CO[C@H]1CC[C@@H](c2cccc(F)c2)CC1` (relative stereo) [Example 16, 2,2-difluoroethyl (CIS)-2-((((CIS)-4-(3-fluorophenyl)cyclohexyl)oxy)methyl)-3-(4-methyl-1H-pyrazol-3-yl)piperidine-1-carboxylate], the EC50 is 126 nM and the “% of reference agonist maximal effect” value turned out to be 99.9%.

Regarding `COC(=O)N1CCC[C@H](c2cc[nH]n2)[C@@H]1CO[C@H]1CC[C@@H](c2ccccc2)CC1` (relative stereo) [Example 21, methyl (CIS)-2-((((CIS)-4-phenylcyclohexyl)oxy)methyl)-3-(1H-pyrazol-3-yl)piperidine-1-carboxylate], the EC50 was 2100 nM and the “% of reference agonist maximal effect” value was 79.9%.

`CCNC(=O)N1CCC[C@H](c2ccnn2C)[C@@H]1CO[C@H]1CC[C@@H](c2ccccc2)CC1` (relative stereo) [Example 22, (CIS)-N-ethyl-3-(1-methyl-1H-pyrazol-5-yl)-2-((((CIS)-4-phenylcyclohexyl)oxy)methyl)piperidine-1-carboxamide]: the EC50 was 6000 nM and the “% of reference agonist maximal effect” value was found to be 83.7%.
